Results taken from patent US20030203969A1, “Pharmaceutically active aromatic guanylhydrazones” (priority 2000, published 2003).

What was measured:
[1] = system: T-cell-tropic HIV-1NL4/3 strain; experiment: Inhibition of T-cell-tropic HIV-1 NL4/3 replication in de novo infected Jurkat cells (p24 antigen); format: cell-based; conditions: d10
Method: (§1) HIV replication was measured either by p24 HIV Antigen Capture Assay Kit (ELISA; HIVAG-1 Monoclonal kit BIA011; Abbott) following the manufacturer's recommendation, or by using the Quantiplex HIV-1 RNA 3.0 Assay (bDNA) system (Chiron Diagnostics). The latter assay is a signal amplification nucleic acid probe assay (employing a sandwich nucleic acid hybridization procedure) for direct quantitation of HIV RNA in human plasma. There, in brief, HIV-1 is first concentrated from plasma by centrifugation. After release of genomic HIV-1 RNA from the virions, the RNA is captured to a microwell by a set of specific, synthetic oligonucleotide capture probes. A set of target probes hybridize to both the viral RNA and the pre-amplifier probes. The capture probes, comprised of 17 individual capture extenders, and the target probes, comprised of 81 individual target extenders, bind to different regions of the pol gene of the viral RNA. The amplifier probe hybridizes to the pre-amplifier forming a branched DNA (bDNA) complex. Then, multiple copies of an alkaline phosphatase labeled probe are hybridized to this immobilized bDNA complex. Detection is achieved by incubating the entire complex with a chemoluminescent substrate. Light emission is directly proportional to the amount of HIV-1 RNA present in each sample, and results are recorded as relative light units by an appropriate analyzer.
Jurkat cells (species: human T-cell leukemia; special characteristics: cells are permissive for growth of T-cell tropic HIV strains; source:ATCC Cat.No. TIB 152) or PM1 cells (species: clonal derivative of human HUT 78 cells; special characteristics: cells are permissive for growth of macrophage-tropic and T-cell tropic HIV strains; source: Dr. Marvin Reitz, courtesy of the NIH AIDS Research and Reference Reagent Program Cat.No. 3038) were stimulated with Phytohemagglutinin (PHA-P, Product No. L9132 from Sigma) in a concentration of 2 μg/ml (1.5×10^6 cells/ml) and Hexadimethrine Bromide (Polybrene, Product No. H9268 from Sigma) in a concentration of 2 μg/ml (1.5×10^6 cells/ml) in RPMI 1640 medium containing 10% fetal calf serum (FCS, Pansystems GmbH) and antibiotics for 3 days.
For HIV-1 infection, 5×10^7 cells were resuspended in 500 μl culture medium without test drugs and incubated in a 50 ml blue-cap-tube at 37° C. for 5 hrs with HIV-1 high titer viral stocks. Jurkat cells were infected with the T-cell tropic strain HIV-1 NL4-3, PM1 cells with the macrophage tropic strain HIV-1 Ba-L (both from the NIH AIDS Research and Reference Reagent Program). After infection, cells were washed twice with PBS without Ca^2+ and Mg^2+ to avoid false positive p24 antigen determination. Cells were resuspended, and identical aliquots (1×10^6/ml) of infected cells were further cultured in 10 ml medium with test drugs at various concentrations, or in medium with DMSO as control for calculation of the inhibition of virus replication (in %].
Culture medium was changed and cells were split at days 3 and 7 of the experiments. Viability of the cells (Trypan-blue staining), cell counts and p24 antigen levels were determined at days 3, 7 and 10 of the experiments. No significant differences in cell viability were observed (˜85-90% living cells).
At day 10 of infection, the HIV strains replicated vigorously in untreated cultures. Numbers describe percent inhibition of HIV replication as compared to control experiments.

[2] = system: clinical HIV-1 isolates; experiment: Inhibition of clinical HIV-1 isolates in PBMCs from HIV-1-infected patients; format: cell-based; conditions: d14
Method: as §1
Peripheral blood mononuclear cells (PBMCs) from HIV-1-infected patients were isolated—(after informal consent was given)—by Biocoll (Biochrom) gradient centrifugation. 1×10^6/ml PBMCs were cultured (5 ml in a six well 32-mm plate) in presence of the test drugs or in DMSO (control diluent) in RPMI 1640 medium supplemented with 10% autologous serum and 2 mM L-Glutamine at 37° C. and 5% CO2.
The culture medium was changed every 3 days during the experiments. Once a week, each culture was split 1:1 and 2×10^6 feeder-PBMCs (per well) and recombinant Interleukin 2 (IL-2) [10U/ml] (Roche) was added. Prior to addition to the cell cultures, the feeder-PBMCs, prepared from 4 healthy donors, were treated for 4 days with PHA-P and PB (2 μg/ml each per 2×10^6 cells). At day 14, viability of the PBMCs (Trypan-blue staining), cell count and virus load (p24 antigen: Innotest HIV Antigen mAb, Innogenetics N. V., Gent, Belgium, or bDNA: HIV-1 RNA 3.0 Assay, Bayer AG, Tarrytown, N.Y., USA) was determined. No significant differences in cell viability were observed (˜75-80% vital cells).
At day 14 of cultivation, the virus replicated vigorously in all untreated cultures. Numbers describe percent inhibition of HIV-1 replication as compared to control experiments.

[3] = system: BCBL-1 cells; experiment: Compound toxicity in BCBL-1 cells (Cell Titer Aqueous One); format: cell-based, human; conditions: read-out: TC50 (the source's name)
Method: The human BCBL-1 cell line is available through the AIDS Reference and Reagent Program (Cat.No. 3233). This cell line was derived from a body cavity-based lymphoma latently infected with HHV-8. Culturing these cells in the presence of phorbol ester induces a lytic infection cycle, resulting in the release of viral particles into the medium. Compound efficacy in this proposed assay is determined using TaqMan PCR technology, and compound toxicity is measured by addition of Promega's Cell Titer Aqueous One Solution (metabolic dye).
12. Duplicate plates will be set up plating media in place of TPA for evaluation of compound toxicity.
12. Twenty microliters of Cell Titer Aqueous One Solution (Promega) will be added to each well of the toxicity plates. Plates will be incubated at 37° C. in a humidified CO2 incubator for 4 hours or until sufficient color development has occurred. Plates will be read on a VMax microtiter plate reader at a wavelength of 490/650 nm. Toxicity of the test compound will be determined by comparing the optical density of test wells with that of control wells.

CC(=NNC(=N)N)c1cc(NC(=O)CCCCCCCCC(=O)Nc2cc(C(C)=NNC(=N)N)cc(C(C)=NNC(=N)N)c2)cc(C(C)=NNC(=N)N)c1 [Compound 4, N,N′-bis (3,5-diacetylphenyl) decane diamide tetrakis (amidinohydrazone)]
percent inhibition of HIV replication as compared to control ([1]; HIV-1 NL4/3, 0.5 μM): 31%
percent inhibition of HIV replication as compared to control ([1]; HIV-1 NL4/3, 1.0 μM): 85%
percent inhibition of HIV-1 replication as compared to control ([2]; HIV-infected PBMCs from patient 1, 0.5 μM): 91.6%
percent inhibition of HIV-1 replication as compared to control ([2]; HIV-infected PBMCs from patient 1, 1.0 μM): 90.7%
percent inhibition of HIV-1 replication as compared to control ([2]; HIV-infected PBMCs from patient 2, 0.5 μM): 85.8%
percent inhibition of HIV-1 replication as compared to control ([2]; HIV-infected PBMCs from patient 2, 1.0 μM): 97.6%
percent inhibition of HIV-1 replication as compared to control ([2]; HIV-infected PBMCs from patient 3, 0.5 μM): 91%
percent inhibition of HIV-1 replication as compared to control ([2]; HIV-infected PBMCs from patient 3, 1.0 μM): 90%
CC50 [3]: 78.9 µM
